In patent US11786503B2, “Pharmaceutical compositions and methods for countering chemotherapy induced cardiotoxicity” (Auransa Inc., priority 2016, dated 2023):
Where two headings read alike, the source gives them in different places.

Columns and labels:
[1] = tested on: Doxorubicin treated human iPSC-derived cardiomyocytes; experiment: iPSC-CM protection by myricetin analogs (Table 1); assay type: cell-based; conditions: for cardioprotection, in words: Table 1
TOPOIIα = target: T1, TOPOIIα (Homo sapiens, UniProt P11388); experiment: kDNA decatenation assay, TOPOIIα; assay type: biochemical; conditions: for TOPOIIα inhibition, in words: decatenation assay;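 as to all read-outs here: kDNA incubated with one unit of TOPOIIα at 37 °C for 30 min, decatenated product resolved on 1% agarose gel, inhibition from relative band intensity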
T1 construct: purchased Inspiralis

TOPOIIβ = target: T2, TOPOIIβ (Homo sapiens, UniProt Q02880); experiment: kDNA decatenation assay, TOPOIIβ; assay type: biochemical; conditions: for TOPOIIβ inhibition, in words: decatenation assay;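 as to all read-outs here: kinetoplast DNA incubated with one unit of TOPOIIβ at 37 °C for 30 min, decatenated product resolved on 1% agarose gel, inhibition scored from relative band intensity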
T2 construct: purchased Inspiralis

[2] = Homo sapiens, iPSC-CM, initial screen at 10 μM or 100 μM, read-out: iPSC-CM protection Max Effect (%), class symbol
[3] = initial screen at 10 μM or 100 μM
[4] = Homo sapiens, iPSC-CM, read-out: iPSC-CM protection EC50
[5] = Homo sapiens, iPSC-CM, read-out: iPSC-CM protection Max Effect (%)
[6] = Homo sapiens, iPSC-CM, read-out: iPSC-CM protection Max Effect (%), class symbol
[7] = read-out: iPSC-CM protection EC50
[8] = approximate, read-out: EC50 for cardioprotection

T1 sequence (P11388 whole entry): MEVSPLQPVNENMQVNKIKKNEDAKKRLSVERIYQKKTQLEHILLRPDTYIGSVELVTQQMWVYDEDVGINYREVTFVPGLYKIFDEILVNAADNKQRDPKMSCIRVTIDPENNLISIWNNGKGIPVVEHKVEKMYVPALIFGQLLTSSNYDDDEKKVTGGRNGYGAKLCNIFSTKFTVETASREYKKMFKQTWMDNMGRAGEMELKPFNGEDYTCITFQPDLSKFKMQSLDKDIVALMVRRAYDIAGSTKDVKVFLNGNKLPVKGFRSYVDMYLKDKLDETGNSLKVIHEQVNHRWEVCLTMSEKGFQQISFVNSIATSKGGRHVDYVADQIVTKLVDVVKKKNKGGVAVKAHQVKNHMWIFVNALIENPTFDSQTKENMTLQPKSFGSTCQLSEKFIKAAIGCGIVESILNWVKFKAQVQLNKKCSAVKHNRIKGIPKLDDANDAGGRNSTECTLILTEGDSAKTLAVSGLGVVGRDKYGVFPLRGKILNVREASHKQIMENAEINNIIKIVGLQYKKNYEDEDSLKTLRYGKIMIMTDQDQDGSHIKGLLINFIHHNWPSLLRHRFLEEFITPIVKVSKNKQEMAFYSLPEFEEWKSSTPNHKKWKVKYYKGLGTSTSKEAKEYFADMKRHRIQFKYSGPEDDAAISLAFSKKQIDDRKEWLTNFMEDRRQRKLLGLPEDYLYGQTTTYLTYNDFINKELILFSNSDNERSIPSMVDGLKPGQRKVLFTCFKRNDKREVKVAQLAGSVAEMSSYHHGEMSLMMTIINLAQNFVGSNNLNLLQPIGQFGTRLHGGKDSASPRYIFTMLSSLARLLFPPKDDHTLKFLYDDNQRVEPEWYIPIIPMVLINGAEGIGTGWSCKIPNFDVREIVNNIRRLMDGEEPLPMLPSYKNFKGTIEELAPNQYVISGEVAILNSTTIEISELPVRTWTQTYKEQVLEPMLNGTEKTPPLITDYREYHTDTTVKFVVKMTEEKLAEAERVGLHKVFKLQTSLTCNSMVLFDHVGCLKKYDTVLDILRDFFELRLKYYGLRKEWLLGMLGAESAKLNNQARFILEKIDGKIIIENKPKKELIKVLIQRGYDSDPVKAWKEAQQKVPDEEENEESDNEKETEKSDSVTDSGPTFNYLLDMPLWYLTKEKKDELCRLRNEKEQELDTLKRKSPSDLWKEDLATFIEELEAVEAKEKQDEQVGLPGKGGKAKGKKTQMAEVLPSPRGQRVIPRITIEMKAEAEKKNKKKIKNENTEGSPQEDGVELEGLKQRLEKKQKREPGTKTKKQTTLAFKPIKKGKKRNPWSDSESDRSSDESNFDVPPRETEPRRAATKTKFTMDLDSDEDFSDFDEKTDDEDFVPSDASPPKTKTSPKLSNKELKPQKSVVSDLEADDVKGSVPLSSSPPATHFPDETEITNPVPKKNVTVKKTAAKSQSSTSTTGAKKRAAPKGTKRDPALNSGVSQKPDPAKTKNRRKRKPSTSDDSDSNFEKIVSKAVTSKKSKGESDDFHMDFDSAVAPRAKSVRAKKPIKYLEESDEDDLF
T2 sequence (Q02880 whole entry): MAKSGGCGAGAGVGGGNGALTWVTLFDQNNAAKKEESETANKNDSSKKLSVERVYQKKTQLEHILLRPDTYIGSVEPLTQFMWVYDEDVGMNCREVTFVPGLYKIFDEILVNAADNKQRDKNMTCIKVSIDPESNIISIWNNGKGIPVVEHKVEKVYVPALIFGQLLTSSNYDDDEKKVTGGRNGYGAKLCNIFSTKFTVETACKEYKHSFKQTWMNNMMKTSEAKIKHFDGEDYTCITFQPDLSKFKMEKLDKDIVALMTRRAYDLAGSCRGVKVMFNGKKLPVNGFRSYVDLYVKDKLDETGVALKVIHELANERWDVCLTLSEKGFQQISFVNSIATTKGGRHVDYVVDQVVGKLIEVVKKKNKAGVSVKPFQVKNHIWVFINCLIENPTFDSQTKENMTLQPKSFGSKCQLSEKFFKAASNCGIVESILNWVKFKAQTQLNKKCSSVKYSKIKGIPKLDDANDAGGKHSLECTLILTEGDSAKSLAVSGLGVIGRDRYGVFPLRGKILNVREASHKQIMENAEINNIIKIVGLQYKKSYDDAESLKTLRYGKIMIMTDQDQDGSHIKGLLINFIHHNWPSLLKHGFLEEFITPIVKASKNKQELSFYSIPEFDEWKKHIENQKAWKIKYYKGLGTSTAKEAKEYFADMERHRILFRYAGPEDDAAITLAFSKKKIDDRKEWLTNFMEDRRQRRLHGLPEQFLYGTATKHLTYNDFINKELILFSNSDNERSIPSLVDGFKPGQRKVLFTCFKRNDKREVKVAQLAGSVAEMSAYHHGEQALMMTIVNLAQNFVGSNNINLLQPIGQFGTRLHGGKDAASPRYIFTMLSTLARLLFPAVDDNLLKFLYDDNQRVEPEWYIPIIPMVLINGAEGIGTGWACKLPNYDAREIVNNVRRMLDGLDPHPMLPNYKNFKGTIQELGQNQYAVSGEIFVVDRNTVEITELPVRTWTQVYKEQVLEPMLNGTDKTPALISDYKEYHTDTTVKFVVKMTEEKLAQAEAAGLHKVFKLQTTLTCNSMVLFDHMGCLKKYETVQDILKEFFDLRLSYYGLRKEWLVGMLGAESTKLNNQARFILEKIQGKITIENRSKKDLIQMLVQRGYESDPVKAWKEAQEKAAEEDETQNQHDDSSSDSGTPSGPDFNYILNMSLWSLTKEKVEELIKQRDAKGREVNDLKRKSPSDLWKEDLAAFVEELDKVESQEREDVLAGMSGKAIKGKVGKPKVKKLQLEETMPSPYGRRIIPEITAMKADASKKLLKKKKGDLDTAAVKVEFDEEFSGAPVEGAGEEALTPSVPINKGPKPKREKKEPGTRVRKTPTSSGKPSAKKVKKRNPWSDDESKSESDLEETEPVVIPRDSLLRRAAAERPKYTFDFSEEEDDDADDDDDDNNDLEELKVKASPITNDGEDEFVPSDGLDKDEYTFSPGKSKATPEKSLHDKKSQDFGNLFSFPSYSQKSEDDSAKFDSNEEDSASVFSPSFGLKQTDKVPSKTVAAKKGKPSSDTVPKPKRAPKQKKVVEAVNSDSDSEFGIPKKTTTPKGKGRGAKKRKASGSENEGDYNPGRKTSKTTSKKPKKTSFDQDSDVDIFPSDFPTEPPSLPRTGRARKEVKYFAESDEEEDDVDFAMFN

## O=c1cc(-c2ccccc2)oc2ccccc12 [Compound 28, flavone]
[1]
  Rescue: −
[1]; [2]
  Emax: < 30%

## COc1cc(-c2oc3cc(O)cc(O)c3c(=O)c2O)cc(OC)c1O [Compound 33, 3′,5′-O-dimethylmyricetin]
TOPOIIα
  TOPIIα Inhibition: −
TOPOIIβ
  TOPIIβ Inhibition: −
[1]
  Rescue: −
[1]; [3]
  iPSC-CM protection Max Effect (%), class symbol: † (Compounds failed to exhibit >30% protection Max Effect at 10 μM or 100 μM on initial screen.)

## O=c1cc(-c2ccc(O)c(O)c2)oc2cc(O)cc(O)c12 [Compound 9, 5,7,3′,4′-tetrahydroxyflavone]
TOPOIIα
  TOPIIα Inhibition: −
TOPOIIβ
  TOPIIβ Inhibition: −
[1]; [4]
  EC50: 9.67 µM
[1]; [5]
  Emax: 62%

## O=c1ccoc2cc(O)ccc12 [Compound 38, 7-hydroxy-4-chromone]
TOPOIIα
  TOPIIα Inhibition: −
TOPOIIβ
  TOPIIβ Inhibition: −
[1]
  Rescue: −
[1]; [2]
  Emax: < 30%

## O=c1c(O)c(-c2ccc(O)c(O)c2)oc2cc(O)ccc12 [Compound 5, 3,7,3′,4′-tetrahydroxyflavone]
[1]; [4]
  EC50: 16.3 µM
[1]; [5]
  Emax: 36%

## O=c1c(O)c(-c2ccccc2)oc2cc(O)ccc12 [Compound 20, 3,7-dihydroxyflavone]
[1]
  Rescue: −

## O=c1cc(-c2ccc(O)c(O)c2)oc2cc(O)ccc12 [Compound 11, 7,3′,4′-trihydroxyflavone]
TOPOIIα
  TOPIIα Inhibition: −
TOPOIIβ
  TOPIIβ Inhibition: −
[1]
  Rescue: +
[1]; [4]
  EC50: 6.25 µM
[1]; [5]
  Emax: 24%

## O=c1cc(-c2ccccc2)oc2cc(O)ccc12 [Compound 24, 7-hydroxyflavone]
[1]
  Rescue: −
[1]; [6]
  Emax: < 30%

## O=c1cc(-c2cc(O)c(O)c(O)c2)oc2ccccc12 [3′,4′,5′-trihydroxyflavone]
[1]; Homo sapiens, Cardiomyocyte, read-out: potency for cardioprotection
  EC50: ≥ 30 µM

## COc1c(O)cc(-c2oc3cc(O)cc(O)c3c(=O)c2O)cc1O [Compound 32, 4′-O-methylmyricetin]
TOPOIIα
  TOPIIα Inhibition: −
TOPOIIβ
  TOPIIβ Inhibition: −
[1]
  Rescue: +
  iPSC-CM protection Max Effect (%): 68%
[1]; [7]
  EC50: 48.6 µM

## COc1cc(-c2oc3cc(O)ccc3c(=O)c2O)cc(OC)c1OC [Compound 35, 3',4',5'-O-trimethylrobinetin]
TOPOIIα
  TOPIIα Inhibition: −
  TOPOIIα inhibition, in words: entirely failed to display cardioprotection or TOPOII inhibition
TOPOIIβ
  TOPIIβ Inhibition: −
  TOPOIIβ inhibition, in words: entirely failed to display cardioprotection or TOPOII inhibition
[1]
  Rescue: −
  cardioprotection, in words: entirely failed to display cardioprotection or TOPOII inhibition
[1]; [3]
  iPSC-CM protection Max Effect (%), class symbol: † (Compounds failed to exhibit >30% protection Max Effect at 10 μM or 100 μM on initial screen.)

## O=c1cc(-c2ccc(O)cc2)oc2cc(O)cc(O)c12 [Compound 13, 5,7,4′,-trihydroxyflavone]
[1]
  Rescue: −
[1]; [2]
  Emax: < 30%

## O=c1ccoc2ccccc12 [chromone]
TOPOIIα
  TOPOIIα inhibition, in words: Nor did either compound confer TOPOIIβ or a inhibition
TOPOIIβ
  TOPOIIβ inhibition, in words: Nor did either compound confer TOPOIIβ or a inhibition
[1]
  cardioprotection, in words: no positive effect

## COc1ccc2c(=O)c(OC)c(-c3cc(OC)c(OC)c(OC)c3)oc2c1 [3,7,3′,4′,5′-O-pentamethylrobinetin]
TOPOIIα
  TOPOIIα inhibition, in words: entirely failed to display cardioprotection or TOPOII inhibition
TOPOIIβ
  TOPOIIβ inhibition, in words: entirely failed to display cardioprotection or TOPOII inhibition
[1]
  cardioprotection, in words: entirely failed to display cardioprotection or TOPOII inhibition

## COc1cc(-c2oc3cc(O)cc(O)c3c(=O)c2O)cc(O)c1O [3′-O-methylmyricetin]
TOPOIIα
  TOPOIIα inhibition, in words: failed to inhibit
TOPOIIβ
  TOPOIIβ inhibition, in words: failed to inhibit
[1]
  cardioprotection, in words: conferred cardioprotection
[1]; [8]
  EC50: ~59 µM

## COc1cc(-c2oc3cc(O)cc(O)c3c(=O)c2O)cc(OC)c1O [3′,5′-O-dimethylmyricetin]
TOPOIIα
  TOPOIIα inhibition, in words: neither cardioprotection nor TOPOIIα and TOPOIIβ inhibition
TOPOIIβ
  TOPOIIβ inhibition, in words: neither cardioprotection nor TOPOIIα and TOPOIIβ inhibition
[1]
  cardioprotection, in words: neither cardioprotection nor TOPOIIα and TOPOIIβ inhibition

## O=c1c(O)c(-c2cccc(O)c2)oc2cc(O)ccc12 [Compound 18, 3,7,3′-trihydroxyflavone]
[1]
  Rescue: −
[1]; [2]
  Emax: < 30%

## O=c1cc(-c2ccc(O)cc2)oc2ccccc12 [Compound 17, 4′-hrydroxyflavone]
[1]
  Rescue: −
[1]; [3]
  iPSC-CM protection Max Effect (%), class symbol: † (Compounds failed to exhibit >30% protection Max Effect at 10 μM or 100 μM on initial screen.)

## O=C1c2ccc(O)cc2OC(c2cc(O)c(O)c(O)c2)C1O (stereo in doubt) [Compound 30, dihydrorobinetin]
TOPOIIα
  TOPIIα Inhibition: −
  TOPOIIα inhibition, in words: no inhibitory activity
TOPOIIβ
  TOPIIβ Inhibition: −
  TOPOIIβ inhibition, in words: no inhibitory activity
[1]
  iPSC-CM protection Max Effect (%): 53%
[1]; [7]
  EC50: 14 µM

## O=c1c(O)c(-c2ccccc2)oc2ccccc12 [Compound 25, 3-hydroxyflavone]
[1]
  Rescue: −
[1]; [2]
  Emax: < 30%

## O=c1cc(-c2cccc(O)c2)oc2ccccc12 [Compound 27, 3′-hydroxyflavone]
[1]
  Rescue: −
[1]; [2]
  Emax: < 30%

## COc1cc(-c2oc3cc(O)cc(O)c3c(=O)c2O)cc(OC)c1OC [3′,4′,5′-O-trimethylmyricetin]
TOPOIIα
  TOPOIIα inhibition, in words: entirely failed to display cardioprotection or TOPOII inhibition
TOPOIIβ
  TOPOIIβ inhibition, in words: entirely failed to display cardioprotection or TOPOII inhibition
[1]
  cardioprotection, in words: entirely failed to display cardioprotection or TOPOII inhibition

## COc1c(O)cc(-c2oc3cc(O)cc(O)c3c(=O)c2O)cc1O [4′-O-methylmyricetin]
TOPOIIα
  TOPOIIα inhibition, in words: without TOPOII inhibition
TOPOIIβ
  TOPOIIβ inhibition, in words: without TOPOII inhibition
[1]
  cardioprotection, in words: conferred cardioprotection
[1]; [8]
  EC50: ~48.7 µM

## O=c1cc(-c2ccccc2)oc2cc(O)cc(O)c12 [Compound 23, 5,7-dihydroxyflavone]
[1]
  Rescue: −
[1]; [2]
  Emax: < 30%

## COc1ccc2c(=O)c(O)c(-c3cc(OC)c(OC)c(OC)c3)oc2c1 [7,3′,4′,5′-O-tetramethylrobinetin]
TOPOIIα
  TOPOIIα inhibition, in words: entirely failed to display cardioprotection or TOPOII inhibition
TOPOIIβ
  TOPOIIβ inhibition, in words: entirely failed to display cardioprotection or TOPOII inhibition
[1]
  cardioprotection, in words: entirely failed to display cardioprotection or TOPOII inhibition

## O=c1c(O)c(-c2ccccc2)oc2cc(O)cc(O)c12 [Compound 19, 3,5,7-trihydroxyflavone]
[1]
  Rescue: −
[1]; [2]
  Emax: < 30%

## O=c1cc(-c2ccc(O)cc2)oc2cc(O)ccc12 [Compound 15, 7,4′-dihydroxyflavone]
[1]
  Rescue: −
[1]; [2]
  Emax: < 30%

## O=c1c(O)c(-c2cccc(O)c2)oc2ccccc12 [Compound 22, 3,3′-dihydroxyflavone]
[1]
  Rescue: −
[1]; [2]
  Emax: < 30%

## O=c1cc(-c2cc(O)cc(O)c2)oc2ccccc12 [Compound 26, 3′,5′-dihydroxyflavone]
[1]
  Rescue: −
[1]; [6]
  Emax: < 30%

## O=c1cc(-c2ccc(O)c(O)c2)oc2ccccc12 [Compound 14, 3′,4′-dihydroxyflavone]
[1]
  Rescue: −
[1]; [2]
  Emax: < 30%

## O=c1c(O)c(-c2ccc(O)cc2)oc2ccccc12 [Compound 16, 3,4′-dihydroxyflavone]
[1]
  Rescue: −
[1]; [2]
  Emax: < 30%

## O=c1cc(-c2cccc(O)c2)oc2cc(O)ccc12 [Compound 21, 7,3′-dihydroxyflavone]
[1]
  Rescue: −
[1]; [2]
  Emax: < 30%
